Experimental findings from patent publication US11795177B2, “Substituted quinoline analogs as aldehyde dehydrogenase 1A1 (ALDH1A1) inhibitors” (THE UNITED STATES OF AMERICA, AS REPRESENTED BY THE …, priority 2017, dated 2023) are described below.

Each structure is given as a SMILES string. Where a name gives a salt, the structure may show the parent alone. Where only a bound is given, the exact number is not on record here.

In assay [1] the test system is MIA PaCa-2 cells. Kind of assay: MIA PaCa2 cell-based assay (1,536-well high-content imaging ALDEFLUOR assay). The note with it: Homo sapiens, 0.5 h, ALDEFLUOR BAAA substrate 500 nM, 30 minutes. Set-up: species or system human. The method in brief:
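High-content ALDEFLUOR imaging readout: BAA-retaining cells in FITC channel scored against Hoechst-counted nuclei. Before imaging, MIA PaCa-2 cells seeded at 1,000 per well received final 500 nM BAAA and 0.5 nM Hoechst with compounds in 16-point series (1.4 nM to 47.8 μM), 30 min, 37° C.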

Assay [2] deals with T1, ALDH1A1 enzyme (Homo sapiens, UniProt P00352).
T1 sequence (P00352 1-501): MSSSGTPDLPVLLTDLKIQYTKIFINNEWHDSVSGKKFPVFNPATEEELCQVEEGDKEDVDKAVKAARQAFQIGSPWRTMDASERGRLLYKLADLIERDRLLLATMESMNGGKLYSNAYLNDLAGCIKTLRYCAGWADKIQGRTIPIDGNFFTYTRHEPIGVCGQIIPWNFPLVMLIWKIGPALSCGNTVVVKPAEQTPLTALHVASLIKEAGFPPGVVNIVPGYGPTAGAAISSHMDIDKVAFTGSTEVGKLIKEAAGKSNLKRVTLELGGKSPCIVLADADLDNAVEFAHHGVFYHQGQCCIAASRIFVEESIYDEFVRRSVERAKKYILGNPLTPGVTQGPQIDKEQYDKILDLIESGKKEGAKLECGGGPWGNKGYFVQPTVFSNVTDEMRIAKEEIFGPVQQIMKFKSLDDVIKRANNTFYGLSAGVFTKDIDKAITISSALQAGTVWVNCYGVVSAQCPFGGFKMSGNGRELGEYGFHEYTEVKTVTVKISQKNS
Briefly: ALDH1A1 enzymatic assay (in vitro). The format is biochemical. The note with it: ALDH1A1 enzyme 20 nM, NAD+ 1 mM, propionaldehyde 80 μM; read-out: ALDH1A1 IC50. In a few lines: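 ALDH1A1 (20 nM final) in 100 mM HEPES pH 7.5, 0.01% Tween 20 was preincubated 15 min at RT with compound (968 pM–57.2 μM final), then started with 1 mM NAD+ and 80 μM propionaldehyde. NADH fluorescence (ex 340/em 450 nm) followed kinetically for 10 min; change normalized to no-inhibitor and no-enzyme controls for percent inhibition and curve fitting.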

`COc1ccc2ncc(C(=O)N3CCC(N4CCCC4)CC3)c(N3CCC4(CC3)OCCO4)c2c1` [Example 11, (6-methoxy-4-(1,4-dioxa-8-azaspiro[4.5]decan-8-yl)quinolin-3-yl)(4-(pyrrolidin-1-yl)piperidin-1-yl)methanone, TFA]: the IC50 in assay [1] and in assay [2] was over 10 µM in each case.
As for `CN(C)C(=O)N1CCN(C(=O)c2cnc3ccsc3c2-c2ccc(C3(C#N)CC3)cc2)CC1` [Example 281, 4-(7-(4-(1-cyanocyclopropyl)phenyl)thieno[3,2-b]pyridine-6-carbonyl)-N,N-dimethylpiperazine-1-carboxamide], the half-maximal inhibitory concentration (IC50) in assay [1] and in assay [2] was under 0.5 µM throughout.
